From BindingDB's records for doi:10.1021/jm034065z (Pfizer, 2003)

Biological target: Aldo-keto reductase family 1 member B1 (Homo sapiens, UniProt P15121)
Assay: In Vitro Aldose Reductase Inhibition Assay
Conditions: pH 7; 24 °C
Method: The activity of the enzyme was determined spectrophotometrically by monitoring the change in absorbance at 340 nm, which is due to the disappearance of NADPH. Inhibition by test compound was measured as the percentage decrease in the rate of NADPH oxidation as compared to a sample without test compound. The determination of the IC50 values was performed by using linear regression analysis of the log dose response curve.

Row | SMILES | IC50
1 | O=c1ccc(S(=O)(=O)c2cc3ccccc3o2)n[nH]1 | 150 nM
2 | O=c1ccc(S(=O)(=O)c2cc3cc(Cl)ccc3o2)n[nH]1 | 25 nM
